Assay results reported in US20050130903A1, “Therapeutic agents and methods of use thereof for the modulation of angiogenesis” (priority 2000, published 2005).
Read-outs that look alike come from different tables or passages of the source. Square brackets hold non-standard residues; d marks the D form. Peptide text beside a SMILES is read from it. * marks the point of attachment. ξ: configuration not given here. X1 = CO[C@H]1C([C@@]2(C)O[C@@H]2CC=C(C)C)[C@]2(CC[C@H]1OC(=O)N[C@@H](CO*)C(C)C)CO2; X2 = CO[C@@H]1[C@H](OC(=O)*)CC[C@]2(CO2)[C@H]1[C@@]1(C)O[C@@H]1CC=C(C)C; X3 = CO[C@@H]1[C@H](OC(=O)*)CC[C@]2(CO2)[C@H]1[C@@]1(C)O[C@@H]1CCC(C)C; ξP = O=C(O)C1CCCN1

What was measured:
[1] = system: bovine aortic endothelial cell; assay: bovine aortic endothelial cell growth assay (Baec assay); type: cell-based
Protocol: (§1) The angiogenesis inhibitor compounds of the invention were tested for their ability to modulate human endothelial cell growth and for their ability to modulate the activity of MetAP2. The MetAP2 enzyme assay was performed essentially as described in Turk, B. et al. (1999) Chem. & Bio. 6: 823-833, the entire contents of which are incorporated herein by reference. The bovine aortic endothelial cell growth assay (Baec assay) was performed essentially as described in Turk, B. et al. (supra), the entire contents of which are incorporated herein by reference.

MetAP2 = target: T1, MetAP2 (Homo sapiens, UniProt P50579); assay: MetAP2 enzyme assay; type: biochemical
T1 construct: made in house; host or cells: insect cells
T1 sequence (P50579 whole entry): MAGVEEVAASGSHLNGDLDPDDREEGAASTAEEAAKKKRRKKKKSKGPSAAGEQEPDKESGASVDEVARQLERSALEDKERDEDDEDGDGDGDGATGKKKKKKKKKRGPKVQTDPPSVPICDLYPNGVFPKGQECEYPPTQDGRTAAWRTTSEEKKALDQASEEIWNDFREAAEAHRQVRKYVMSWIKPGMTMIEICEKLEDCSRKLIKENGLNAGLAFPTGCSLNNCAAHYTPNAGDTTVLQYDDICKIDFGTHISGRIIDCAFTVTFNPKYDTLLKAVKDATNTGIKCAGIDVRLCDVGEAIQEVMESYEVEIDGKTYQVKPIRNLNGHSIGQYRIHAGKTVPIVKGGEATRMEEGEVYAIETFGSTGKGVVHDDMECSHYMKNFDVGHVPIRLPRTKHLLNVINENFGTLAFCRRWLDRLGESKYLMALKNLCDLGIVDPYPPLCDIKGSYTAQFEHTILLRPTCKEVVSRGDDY
Protocol: Finally, the ability of the angiogenesis inhibitor compounds of the invention to modulate the activity of MetAP2 may be tested as follows. Recombinant human MetAP2 may be expressed and purified from insect cells as described in Li and Chang, (1996) Biochem. Biophys. Res. Commun. 227:152-159. Various amounts of angiogenesis inhibitor compound is then added to buffer H (10 mM Hepes, pH 7.35, 100 mM KCl, 10% glycerol, and […]) containing 1 nM purified recombinant human MetAP2 and incubated at 37° C. for 30 minutes. To start the enzymatic reaction a peptide containing a methionine residue, e.g., Met-Gly-Met, is added to the reaction mixture (to a concentration of 1 mM). Released methionine is subsequently quantified at different time points (e.g., at 0, 2, 3, and 5 minutes) using the method of Zou et al. (1995) Mol. Gen Genetics 246:247-253).
as §1

[2] = system: human umbilical vein endothelial cells (HUVEC); assay: human endothelial cell growth assay (Huvec assay); type: cell-based
Protocol: For the human endothelial cell growth assay, human umbilical vein endothelial cells (HUVEC) were maintained in Clonetics endothelial growth medium (EGM) in a 37° C. humidified incubator. Cells were detached with trypsin and pelleted by centrifugation at 300×g for 5 minutes at room temperature. HUVEC were added to 96-well plates at 5,000 cells/well. After incubating for 6 hours, the medium was replaced with 0.2 ml fresh EGM supplemented with 0.5 nM bFGF and the desired concentration of test angiogenesis inhibitor compound. Test angiogenesis inhibitor compounds were initially dissolved in ethanol at stock concentrations of either 10 mM or 0.1 mM, and subsequently diluted in EGM to obtain concentrations from […] to 10 μM. After 48 hours at 37° C., the medium was replaced with fresh bFGF-supplemented EGM and test angiogenesis inhibitor compound. Following incubation for an additional 48 hours at 37° C. MTT (3-[4,5-dimethylthiazol-2-yl]-2,5-diphenyl-tetrazolium bromide) was added to 1 mg/ml. After 2-4 hours at 37° C. the medium was replaced with 0.1 ml/well isopropanol. The plates were placed on a shaker for 15 minutes at room temperature and analyzed in a Labsystems Multiskan plate spectrophotometer at an optical density of 570 nm.

[3] = stability in liver microsomes; type: in vitro ADME, rat; conditions: NADPH regenerating system
Protocol: The stability of the angiogenesis inhibitor compounds in liver microsomes was also tested. The test angiogenesis inhibitor compound at a concentration of 3 μM was incubated with male rat liver microsomes (0.5 mg/mL protein) in the presence of a NADPH regenerating system (1 mM NADP, 10 mM G6P, 1 U/mL G6PdH2, 3 mM MgCl2 ) in 100 mM Phosphate buffer at pH 7.4 at 37° C. Incubations were performed in the presence and absence of 1 μM epoxide hydrolase (EH) inhibitor N-cyclohexyl-N′-(3-phenylpropyl)urea (M. Morisseau et al. (1999) PNAS 96:8849-54) and quantitative analysis performed using LC/MS/MS.
(§2) The parent compound remaining (relative to time 0) in the incubation mixture was plotted as a function of time; a first order exponential equation was fit to the observed data, and the elimination half-lives associated with the disappearance of the test compound were determined.

[4] = plasma stability in human plasma; type: in vitro ADME; conditions: human plasma, 37° C., 20 μM
Protocol: The plasma stability of the angiogenesis inhibitor compounds of the invention was also tested in human plasma at 37° C. (at a 20 μM concentration of the angiogenesis inhibitor compound). The matrix minus the test angiogenesis inhibitor compound was equilibrated at 37° C. for 3 minutes. The assay was initiated by addition of the test compound, and the reaction mixture was incubated in a shaking water bath at 37° C. […] The supernatant was analysed by Liquid Chromatography/Mass spectrometry (LC/MS) using a four point standard curve to obtain percent recovery.
as §2, with “test angiogenesis inhibitor” for “test”

[5] = Homo sapiens, HUVEC, bFGF-supplemented EGM, MTT

Q: With COC(=O)[C@H](NC(=O)O[C@@H]1CC[C@]2(CO2)[C@@H]([C@@]2(C)O[C@@H]2CC=C(C)C)[C@@H]1OC)C(C)C [Example 2, 2-{(3R,4S,5S,6R)-5-Methoxy-4-[(2R,3R)-2-methyl-3-(3-methyl-but-2-enyl)-oxiranyl]-1-oxa-spiro[2.5]oct-6-yloxycarbonylamino}-3-methyl-butyric acid methyl ester] as the compound, how does the IC50 ([1]; Bos taurus, BAEC) read?
A: 0.048 nM

Q: What about the IC50 (MetAP2; read-out: MetAP2 Assay IC50) of the same compound?
A: 2 nM

Q: And the IC50 [2, 5]?
A: 0.04 nM

Q: Which “T1/2 (with EH inhibitor)” value ([3]; male rat liver microsomes 0.5 mg/mL, 3 μM, with 1 μM EH inhibitor) does the source give for CO[C@@H]1[C@H](OC(=O)NC(=O)CCl)CC[C@]2(CO2)[C@H]1[C@@]1(C)O[C@@H]1CC=C(C)C [TNP-470, reference compound] here?
A: >1.0 min

Q: What about the half-life at 3 μM ([3]; pH 7.4, male rat liver microsomes 0.5 mg/mL, without EH inhibitor, read-out: T1/2 (without EH inhibitor)) of the same compound?
A: > 1 min

Q: What does the source list for CO[C@@H]1[C@H](OC(=O)NCC(=O)N2CCCC2C(=O)N[C@@H](CC(C)C)C(=O)NCC(=O)N[C@@H](CCSC)C(=O)N[C@@H](Cc2c[nH]c3ccccc23)C(=O)N[C@@H](C)C(=O)NCC(N)=O)CC[C@]2(CO2)[C@H]1[C@@]1(C)O[C@@H]1CC=C(C)C (some centres unmarked) [Example 17] (X2-G[ξP]LGMWAG-NH2)?
A: IC50 (MetAP2): 16.7 nM; IC50 [2]: 95 nM

Q: For CO[C@@H]1[C@H](OC(=O)N[C@@H](COC(=O)CNC(=O)[C@@H](N)CCSC)C(C)C)CC[C@]2(CO2)[C@H]1[C@@]1(C)O[C@@H]1CC=C(C)C [Example 23, (ID#38)-(2R-{(3R,4S,5S,6R) 5-methoxy-4-[(2R,3R)2-methyl-3-(3-methyl-but-2-enyl)-oxiranyl]-1-oxa-spiro[2.5]oct-6-yloxycarbonyl}amino-3-methyl-butanol)ester], which IC50 [1] is on record?
A: 0.207 nM

Q: Which IC50 [1] does the source give for CO[C@@H]1[C@H](OC(=O)NCC(=O)N[C@@H](CCCNC(=N)N)C(=O)NCC(=O)N[C@@H](CC(=O)O)c2cccnc2)CC[C@]2(CO2)[C@H]1[C@@]1(C)O[C@@H]1CC=C(C)C [Example 16, N-Carbamoyl (ID#40) (3R,4S,5S,6R) 5-methoxy-4-[(2R,3R)2-methyl-3-(3-methyl-but-2-enyl)-oxiranyl]-1-oxa-spiro[2.5]oct-6-yl ester] here?
A: > 100 nM

Q: For COC(=O)[C@H](NC(=O)O[C@@H]1CC[C@]2(CO2)[C@@H]([C@@]2(C)O[C@@H]2CC=C(C)C)[C@@H]1OC)c1ccccc1 [Example 4, {(3R,4S,5S,6R)-5-Methoxy-4-[(2R,3R)-2-methyl-3-(3-methyl-but-2-enyl)-oxiranyl]-1-oxa-spiro[2.5]oct-6-yloxycarbonylamino}-phenyl-acetic acid methyl ester], which IC50 (MetAP2; read-out: MetAP2 Assay IC50) is on record?
A: 2.7 nM

Q: Which IC50 ([1]; Bos taurus, BAEC) does the source give for COC(=O)[C@@H](NC(=O)O[C@@H]1CC[C@]2(CO2)[C@@H]([C@@]2(C)O[C@@H]2CC=C(C)C)[C@@H]1OC)C(C)C [Example 1, 2-{(3R,4S,5S,6R)-5-Methoxy-4-[(2R,3R)-2-methyl-3-(3-methyl-but-2-enyl)-oxiranyl]-1-oxa-spiro[2.5]oct-6-yloxycarbonylamino}-3-methyl-butyric acid methyl ester] here?
A: 0.017 nM

Q: What about the IC50 (MetAP2; read-out: MetAP2 Assay IC50) of the same compound?
A: 4.7 nM

Q: And the IC50 [2, 5]?
A: 0.018 nM

Q: With CO[C@H]1C([C@@]2(C)O[C@@H]2CC=C(C)C)[C@]2(CC[C@H]1OC(=O)N[C@@H](COC(=O)[C@H](C)NC(=O)[C@H](Cc1c[nH]c3ccccc13)NC(=O)[C@H](CCSC)NC(=O)CNC(=O)[C@H](CC(C)C)NC(=O)[C@@H]1CCCN1C(C)=O)C(C)C)CO2 (stereo partly drawn) [Example 20, (ID#24)-(2R-{(3R,4S,5S,6R) 5-methoxy-4-[(2R,3R)2-methyl-3-(3-methyl-but-2-enyl)-oxiranyl]-1-oxa-spiro[2.5]oct-6-yloxycarbonyl}amino-3-methyl-butanol)ester] (Ac-PLGMWA-X1) as the compound, how does the recovery at 0 min, 20 μM ([4]; 0 min, read-out: Percent Recovery (Remaining) 0 min) read?
A: 110%

Q: What about the recovery at 15 min, 20 μM ([4]; 15 min, read-out: Percent Recovery (Remaining) 15 min) of the same compound?
A: 114%

Q: And the recovery at 30 min, 20 μM ([4]; 30 min, read-out: Percent Recovery (Remaining) 30 min)?
A: 114%

Q: What about the recovery at 60 min, 20 μM ([4]; 60 min, read-out: Percent Recovery (Remaining) 60 min) of the same compound?
A: 120%

Q: And the recovery at 90 min, 20 μM ([4]; 90 min, read-out: Percent Recovery (Remaining) 90 min)?
A: 106%

Q: And the recovery at 120 min, 20 μM ([4]; 120 min, read-out: Percent Recovery (Remaining) 120 min)?
A: 103%

Q: What about the half-life at 20 μM ([4]; first order fit, read-out: T1/2) of the same compound?
A: ≥ 500 min

Q: Which IC50 ([1]; Bos taurus, BAEC) does the source give for COC(=O)[C@@H](CC(C)C)NC(=O)O[C@@H]1CC[C@]2(CO2)[C@@H]([C@@]2(C)O[C@@H]2CC=C(C)C)[C@@H]1OC [Example 3, 2-{(3R,4S,5S,6R)-5-Methoxy-4-[(2R,3R)-2-methyl-3-(3-methyl-but-2-enyl)-oxiranyl]-1-oxa-spiro[2.5]oct-6-yloxycarbonylamino}-4-methyl-pentanoic acid methyl ester] here?
A: 0.118 nM

Q: And the IC50 (MetAP2; read-out: MetAP2 Assay IC50)?
A: 5.5 nM

Q: What about the IC50 [2, 5] of the same compound?
A: 0.038 nM

Q: For COc1ccc(C[C@H](NC(=O)[C@H](CC(=O)O)NC(=O)CNC(=O)[C@H](CCCNC(=N)N)NC(=O)CNC(=O)O[C@@H]2CC[C@]3(CO3)[C@@H]([C@@]3(C)O[C@@H]3CCC(C)C)[C@@H]2OC)C(=O)N[C@@H](CCCNC(=N)N)C(=O)N[C@@H](CCC(=O)O)C(N)=O)cc1 [Example 14] (X3-GRGDY(Me)RE-NH2), which IC50 (MetAP2) is on record?
A: 4000 nM

Q: What about the IC50 [2] of the same compound?
A: > 10000 nM

Q: With CO[C@@H]1[C@H](OC(=O)N[C@@H](COC(=O)[C@H](C)NC(=O)[C@H](Cc2c[nH]c3ccccc23)NC(=O)[C@@H](N)CCSC)C(C)C)CC[C@]2(CO2)[C@H]1[C@@]1(C)O[C@@H]1CC=C(C)C [Example 22, (ID#37)-(2R-{(3R,4S,5S,6R) 5-methoxy-4-[(2R,3R)2-methyl-3-(3-methyl-but-2-enyl)-oxiranyl]-1-oxa-spiro[2.5]oct-6-yloxycarbonyl}amino-3-methyl-butanol)ester] as the compound, how does the IC50 [1] read?
A: 0.326 nM
